The values below come from patent publication US20100267803A1, “Regulators Of Fat Metabolism As Anti-Cancer Targets” (The Research Foundation of State University Of New York, priority 2008, published 2010).

Holding throughout (assay type): cell-based, human
In experiment [1] the test system is BT474 cells. Description: Apoptosis by cleaved Caspase-3 or activated Bax immunofluorescence. The settings on record: 48 h of shRNA or 20 μM GW9662. As for the experimental part:
Results are shown as percentage of control. (**P=0.03). (c) BT474 cells were transfected with luciferase (control), PBP and NR1D1 shRNAs and co-transfected with GFP. Green cells were counted at intervals and expressed as percentage of control. (Error bars are s.d from 3 individual experiments; *P<0.08, **P<0.03, ***P<0.005). (d) BT474 cells were transfected with luciferase (control), PBP or NR shRNAs for 48 h. Immunofluorescence was performed for cleaved Caspase-3 signal; cell nuclei were stained with Hoechst 33243. (e) Cells from […] were counted for cleaved Caspase-3 signal. (Error bars are s.d from 3 individual experiments; ***P<0.0003). (f) BT474 cells were transfected with luciferase (control) PBP, NR1D1 or PBP and NR1D1 shRNAs together and co-transfected with GFP. Transfected cells were counted at 24 h and 72 h and the 72 h-to-24 h ratio for each shRNA was calculated and expressed as % of the control shRNA (luciferase). (Error bars are s.d from 3 individual experiments; **P=0.01, ***P<0.002). (g) Cells from (f) were counted for cleaved Caspase-3 signal. (Error bars are s.d from 3 individual experiments; ***P<0.0001). (h) ERBB2 mRNA levels of BT474 cells transfected with luciferase (control), PBP or NR1D1 shRNAs for 48 h, analyzed by qRT-PCRs. (Error bars are s.d from 3 individual experiments; ***P=0.0001).
FIG. 3 PPAR. inhibition impacts NR1D1 expression and ERBB2-positive cells viability. (a) Cell counts of BT474, MDA-MB-361, MCF-7 and HMEC cells treated with vehicle, 10 and 20 μM of the PPAR. antagonist GW9662 for 72 hrs. Results represented as % of control (vehicle). (Error bars are s.d from 3 individual experiments; *P>0.2, **P<0.05, ***P<0.002). […] (c) Quantification of Caspase-3 signal. […] (d) aP2 and NR1D1 mRNA levels of BT474 cells treated with vehicle (control) and 20 μM of GW9662 for 48 h, analyzed by qRT-PCRs. […]
FIG. 5. (a) MDH1 and ME1 mRNA levels of BT474 cells treated with luciferase (control), PBP or NR1D1 shRNAs for 48 h, analyzed by qRT-PCRs. […] (d) Quantification of cleaved Caspase-3 signal from cells in (c). […]

Experiment [2] deals with FADS2 mRNA. Description: qRT-PCR of FADS2 mRNA in BT474 cells. To be noted: shRNA or 20 μM GW9662 for 48 h. The protocol: (§1) FIG. 4 NR1D1 and PBP coordinate fatty acid metabolism in breast cancer cells. (a) BT474, MDA-MB-361, MCF-7 and HMEC cells were stained with Oil-Red O lipid and hematoxylin nuclear stains. (b) Fat stores were quantified by BODIPY 493/503 lipid probe staining (Error bars are s.d from 3 individual experiments). (c) FASN, ACLY, ACACA and FADS2 mRNA levels of BT474 cells treated with luciferase (control), PBP or NR1D1 shRNAs, or with vehicle and 20 μM of GW9662 for 48 h, analyzed by qRT-PCRs. (Error bars are s.d from 3 experiments; ***P<0.001, **P=0.005) (d) BT474 cells were transfected with FASN, ACLY and ACACA shRNAs and co-transfected with GFP. Transfected cells were counted at 24 h and 72 h and the 72h-to-24 h ratio for each shRNA was calculated and expressed as % of the control shRNA (luciferase). (Error bars are s.d from 3 individual experiments; **P<0.01, ***P<0.002). (e) BODIPY images and (f) quantification of BT474 cells transfected with luciferase (control), PBP or NR1D1 shRNAs and co-transfected with DsRed (Error bars are s.d from 3 individual experiments; ***P<0.03). Arrows indicate transfected cells.
(§2) Cell viability—apoptosis assays. […] At least 30 fields were imaged per single experiment. […] Immunoblotting. […] PCR reaction was run using standard conditions.
A general note: In qPCR the cycle at which signal appears reflects the starting amount.

Experiment [3] concerns aP2 (FABP4) mRNA. Description: qRT-PCR of aP2 mRNA in BT474 cells. To be noted: 20 μM GW9662 for 48 h. As for the experimental part: (§3) FIG. 3 PPAR. inhibition impacts NR1D1 expression and ERBB2-positive cells viability. (a) Cell counts of BT474, MDA-MB-361, MCF-7 and HMEC cells treated with vehicle, 10 and 20 μM of the PPAR. antagonist GW9662 for 72 hrs. Results represented as % of control (vehicle). (Error bars are s.d from 3 individual experiments; *P>0.2, **P<0.05, ***P<0.002). (b) BT474 cells treated with vehicle or 20 μM of GW9662 for 48 h were immuno-stained for cleaved Caspase-3. (c) Quantification of Caspase-3 signal. (Error bars are s.d from 3 individual experiments; ***P=0.002). (d) aP2 and NR1D1 mRNA levels of BT474 cells treated with vehicle (control) and 20 μM of GW9662 for 48 h, analyzed by qRT-PCRs. (Error bars are s.d from 3 experiments; ***P<0.0006. (e) BMAL1-luc activity of BT474 cells treated with vehicle or 20 μM of GW9662 for 48 h. (Error bars are s.d from 3 individual experiments; **P=0.03). (f) Total ERBB2 western blot of BT474 cells treated with vehicle or 20 μM GW9662 for 72h. GAPDH was used as control.
as §2

The subject of experiment [4] is BT474, MDA-MB-361, MCF-7 and HMEC cells. Description: Cell counts after PPARγ antagonist treatment. To be noted: 10 and 20 μM for 72 hrs; % of vehicle. The protocol:
as §3, §2

The test system of experiment [5] is ACLY mRNA. Nature of the experiment: qRT-PCR of ACLY mRNA in BT474 cells. To be noted: shRNA or 20 μM GW9662 for 48 h. The protocol: as §1, §2
In experiment [6] the test system is BMAL1 reporter. Description: BMAL1 luciferase reporter assay in BT474 cells. To be noted: 20 μM GW9662 for 48 h. As for the experimental part:
(§4) FIG. 2 NR1D1 and PBP are necessary for survival of ERBB2-positive cells. (a) PBP and NR1D1 mRNA levels of BT474 cells transfected with luciferase (control), PBP or NR1D1 shRNAs for 48 h, analyzed by qRT-PCRs. (Error bars are s.d from 3 experiments; ***P<0.003, **P=0.01, *P=0.02). (b) BMAL1 luciferase reporter activity of BT474 cells transfected with either empty vector (control), or NR1D1 shRNA for 48 h.
FIG. 3 PPAR. inhibition impacts NR1D1 expression and ERBB2-positive cells viability. (a) Cell counts of BT474, MDA-MB-361, MCF-7 and HMEC cells treated with vehicle, 10 and 20 μM of the PPAR. antagonist GW9662 for 72 hrs. Results represented as % of control (vehicle). (Error bars are s.d from 3 individual experiments; *P>0.2, **P<0.05, ***P<0.002). (b) BT474 cells treated with vehicle or 20 μM of GW9662 for 48 h were immuno-stained for cleaved Caspase-3. (c) Quantification of Caspase-3 signal. […] (d) aP2 and NR1D1 mRNA levels of BT474 cells treated with vehicle (control) and 20 μM of GW9662 for 48 h, analyzed by qRT-PCRs. […]
Reporter assays. […] Cells were lysed 48 h post-transfection and firefly (reporter) and renilla luciferase activities were measured using the Dual-Luciferase Reporter Assay kit (Promega) on a BioTek Synergy HT reader. The ratio of Firefly to Renilla luciferase activity was calculated and presented as percentage of control.
Background: A reporter such as luciferase makes a cellular process visible.

Experiment [7] relates to ERBB2. Description: ERBB2 western blot of BT474 cells. The protocol:
as §3, §2
(A western blot detects proteins with antibodies after separation by electrophoresis.)

Experiment [8] deals with ACACA mRNA. Nature of the experiment: qRT-PCR of ACACA mRNA in BT474 cells. To be noted: shRNA or 20 μM GW9662 for 48 h. As for the experimental part:
as §1, §2

In experiment [9] the test system is NR1D1 mRNA. Nature of the experiment: qRT-PCR of NR1D1 mRNA in BT474 cells. The settings on record: 20 μM GW9662 for 48 h. As for the experimental part: as §4
FIG. 3 PPAR. inhibition impacts NR1D1 expression and ERBB2-positive cells viability. (a) Cell counts of BT474, MDA-MB-361, MCF-7 and HMEC cells treated with vehicle, 10 and 20 μM of the PPAR. antagonist GW9662 for 72 hrs. Results represented as % of control (vehicle). (Error bars are s.d from 3 individual experiments; *P>0.2, **P<0.05, ***P<0.002). (b) BT474 cells treated with vehicle or 20 μM of GW9662 for 48 h were immuno-stained for cleaved Caspase-3. (c) Quantification of Caspase-3 signal. (Error bars are s.d from 3 individual experiments; ***P=0.002). (d) aP2 and NR1D1 mRNA levels of BT474 cells treated with vehicle (control) and 20 μM of GW9662 for 48 h, analyzed by qRT-PCRs. […]

Experiment [10] deals with FASN mRNA. Nature of the experiment: qRT-PCR of FASN mRNA in BT474 cells. To be noted: shRNA or 20 μM GW9662 for 48 h. As for the experimental part:
as §1, §2

The structures appear in SMILES notation.

Turning to `O=C(Nc1ccccc1)c1cc([N+](=O)[O-])ccc1Cl` [GW9662, reference compound], in [1], the apoptosis entry is “apoptosis of BT474 cells”. Also, the FADS2 transcript levels entry in experiment [2] is “downregulated”. Also, in [3], the “mRNA levels of aP2” value is listed as “decreased mRNA levels of aP2”. Besides, the “sensitivity of cells to drug treatment (cell counts)” value in [4] is “ERBB2-positive cells were more sensitive to drug treatment than MCF-7 and HMEC cells”. Besides, in experiment [5], the ACLY transcript level entry is on record as “reduced”. Also, in experiment [6], the BMAL1 reporter activity result is “increased BMAL1 reporter activity”. Further, the ERBB2 protein levels entry in experiment [7] (20 μM GW9662 for 72h) is given as “Neither ERBB2 protein levels (FIG. 3f), nor ERBB2 phosphorylation (FIG. S3d) were significantly affected”. Also, the ERBB2 phosphorylation entry in [7] (GW9662 treatment) is reported as “Neither ERBB2 protein levels (FIG. 3f), nor ERBB2 phosphorylation (FIG. S3d) were significantly affected”. Moreover, the ACACA transcript level result in [8] was “reduced”. For the same compound, the NR1D1 message levels entry in experiment [9] was “dramatically decreased”. Also, the FASN transcript level result in experiment [10] was “reduced”.
